Experimental data as given in US9546157B2, “Asymmetric piperidinyl-substituted ureas as medicines” (Helsinn Healthcare SA, priority 2014, dated 2017).
“Also recorded” adds a separate entry of the source.

Tests used:
GHSR1a = target: T1, GHSR1a (Homo sapiens, UniProt Q92847); assay: Calcium FLIPR assay, GHSR-1a antagonism (reduction of ghrelin response); assay type: cell-based; settings: HEK293/GHSR1a cells, ghrelin 10 nM
T1 construct: expressed in transfected cells; host or cells: HEK293
In short: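 Relative fluorescence read-out (FLIPR) of intracellular calcium in HEK293/GHSR1a cells. For antagonist mode, compound and 10 nM ghrelin were co-added at t=20 sec, and inhibition of the ghrelin response over 2 minutes gave IC50. Agonist mode: compound alone at t=20 sec, response tracked 2 minutes; EC50 from dose-response.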

C57BL/6J mice = assay: Food intake test in mouse (GHSR1a antagonists); assay type: in vivo; settings: for inhibition in vivo at 10 mg/kg / inhibition in vivo at 30 mg/kg: Mus musculus, po
In short: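 Male C57BL/6J mice (18-22 g) were fasted overnight (16 h before dosing), then randomized by body weight to vehicle or test agent (n=6 each). Cumulative food intake was measured at 1, 2, 4, 8 and 24 hrs post-dose as premeasured food minus uneaten food.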

[1] = tested on: female Sprague-Dawley rats; assay: Binge eating model in non-estrous female rats (food restriction + stress, HPF intake); assay type: in vivo, rat; settings: for 2-h chow food intake during binge eating test / 24-h chow food intake after binge eating test: acute administration (compounds 3 and 30 mg/kg, Topiramate 60 mg/kg)
Protocol: In this Example, the therapeutic potential of compounds were tested for their ability to inhibit binge eating. The animal model used was developed to explore the combination of food restriction and stress. […] Considering the reliability and the robustness of this model, it was adopted to test the inventive compounds.
A total of N=117, 52-day-old female Sprague-Dawley rats (175-200 g) were used. Rats were acclimated in individual cages with metallic walls; the floor and the front wall made of metallic grid. The dimensions of the cage floor being 30 cm×30 cm; the cage is 30 cm high. A front door (30 cm×20 cm) made of metallic grid was positioned in the anterior wall of the cage to gain access to the inside of the cage; the remaining part of the front wall was equipped with a drinking burette.
Rats were kept in a room at constant temperature (20-22° C.) and humidity (45-55%) under a 12-h light/dark cycle (lights on at 08:00 am) with ad lib chow and water. All procedures were conducted in adherence to the European Community Directive for Care and Use of Laboratory Animals.
Rats were offered food pellets, 4RF18, Mucedola, Settimo Milanese, Italy (2.6 kcal/g). The Highly Palatable Food (HPF) was prepared by mixing:
Rats were exposed to 3 consecutive 8-day cycles followed by the final test on day 25:
a) the control group (NR+NS) had chow ad libitum for 4 days, on days 5-6 it received chow+HPF for 2 h; on days 7-8 it had chow ad libitum; on day 25 it was not exposed to stress;
b) the second group (R+S) had chow restricted to 66% of the normal intake for 4 days, was offered chow and HPF (2 h) on days 5-6 and only chow on days 7-8; on day 25 it […].
Body weights and food intake were recorded daily. Food intake is expressed as mean kilocalories per kilogram ingested±SEM.
Therefore, immediately after the test on day 25, vaginal smears were collected and analyzed under microscope to assess the ovarian phase, and data from rats in the estrous phase were not included in the statistical analysis. Vaginal smears were analyzed by an experienced experimenter blind to treatment conditions.
For 15 min, the container (China coffee cup) containing HPF is placed outside the cage; the container handle is hooked to the top wire wall of the cage in the hollow part where food pellets are usually offered. In these conditions, the animal is able to see the cup in which it received HPF on days 5, 6, 13, and 14 of the first two cycles, is able to see in part the HPF itself, and is able to smell its odour. In this 15-min period, the rat engages in repeated movements of the forepaws, head, and trunk aimed at obtaining the HPF, but it is not able to reach it. Rats undergo the stressful procedure between 10.00 and 12.00 am. After 15 min, the cup is placed inside the cage of the rats in the stress group (R+S), so that the HPF became accessible to the rat.
100 mg of each compound (H0816, H0860, H0847 and H0900) was accurately weighed and suspended in 13.33 ml of 0.5% carboxymethyl cellulose sodium salt (CMC, Sigma-Aldrich Cat. C4888, lot 120M0216V) solution. The lower dose solution was prepared by dilution of 30 mg/ml suspension with 0.5% CMC solution. Suspensions were prepared freshly on test day. Vehicle was composed by a solution of 0.5% carboxymethyl cellulose sodium salt and was prepared by dissolving 1 g of CMC in 200 ml of distilled water. 180 mg of Topiramate was accurately weighed and suspended in 12 ml of 0.5% CMC solution. Compounds (vehicle and active principles) were administered by gavage in a volume of 4 ml/kg of body weight one hour before access to HPF.
All data are expressed as the mean±s.e.m. and each value reflects the mean number of animals per group as described in the legends. For data evaluation, the analysis of variance (ANOVA) was used followed by post-hoc (Bonferroni's) test when appropriate. Statistical significance was set at P<0.05. The Software used for the Graphs was Origin 7.0. […]

[2] = Metabolic Stability (H = Human); assay type: in vitro ADME
[3] = Metabolic Stability (M = Mouse); assay type: in vitro ADME
[4] = first test, doses of 3 and 30 mg/kg by gavage, acute administration
[5] = first test, 30 mg/kg by gavage 1 h before access to HPF, vs R+S vehicle
[6] = first test, 3 and 30 mg/kg by gavage
[7] = second test, H0816 3, 10 and 30 mg/kg, Topiramate 60 mg/kg

T1 sequence (Q92847 whole entry): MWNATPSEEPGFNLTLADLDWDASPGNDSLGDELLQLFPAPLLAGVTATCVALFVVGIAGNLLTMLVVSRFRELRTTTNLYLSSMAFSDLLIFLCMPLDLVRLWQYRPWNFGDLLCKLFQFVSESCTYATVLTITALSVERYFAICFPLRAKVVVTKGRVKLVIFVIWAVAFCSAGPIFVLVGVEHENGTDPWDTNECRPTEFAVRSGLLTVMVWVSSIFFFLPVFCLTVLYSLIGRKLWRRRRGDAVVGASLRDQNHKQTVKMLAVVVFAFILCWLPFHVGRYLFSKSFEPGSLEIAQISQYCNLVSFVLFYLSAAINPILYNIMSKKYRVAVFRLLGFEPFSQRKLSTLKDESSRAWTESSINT

| SMILES | IC50 (GHSR1a) [nM] | 2-h chow food intake during binge eating test ([1]; first test) | 24-h chow food intake after binge eating test ([1]; first test) | 2-h HPF intake (binge eating) in R+S rats, overall (ANOVA) [1, 4] | Metabolic Stability H [2] | Metabolic Stability M [3] | HPF intake (binge eating) in R+S rats, post-hoc [1, 5] | animals' gross behaviour during the 2-h test [1, 6] | also measured |
| --- | --- | --- | --- | --- | --- | --- | --- | --- | --- |
| CC[C@H](NC(=O)N(C)C1CCN(C)CC1)c1ccc(-c2cnccn2)c(Cl)c1Cl [Compound H0860, (S)-3-(1-(2,3-dichloro-4-(pyrazin-2-yl)phenyl)propyl)-1-methyl-1-(1-methylpiperidin-4-yl)urea] | 3 | significantly increased 2-h chow food intake | significantly increased 24-h chow food intake | not statistically significant; also recorded: did not significantly reduce HPF intake; also recorded: did not affect HPF intake | High H High M | High H High M |  |  | inhibition in vivo at 10 mg/kg (C57BL/6J mice; 1 h, PO 10 mg/kg + ANA 30 mg/kg mice): 68% |
| CN1CCC(N(C)C(=O)N[C@H](c2ccc(-c3cnccn3)c(Cl)c2Cl)C(F)(F)F)CC1 [Compound H0900, (R)-3-(1-(2,3-dichloro-4-(pyrazin-2-yl)phenyl)-2,2,2-trifluoroethyl)-1-methyl-1-(1-methylpiperidin-4-yl)urea] | 3 | did not modify 2-h chow intake | did not modify 24-h chow intake | reduced binge eating episodes; also recorded: significant difference; also recorded: significantly reduced BE behaviour | Medium | High | statistically significant (P<0.01) at all time points | did not affect animals' gross behaviour | inhibition in vivo at 10 mg/kg (C57BL/6J mice; 1 h, PO 10 mg/kg + ANA 30 mg/kg fed mice): 60%; inhibition in vivo at 30 mg/kg (C57BL/6J mice; 1 h, PO 30 mg/kg + ANA 30 mg/kg fed mice): 91%; inhibition in vivo at 30 mg/kg (C57BL/6J mice; 1 h, PO 30 mg/kg fasted mice): 26%; inhibition in vivo at 30 mg/kg (C57BL/6J mice; 1 h, PO 30 mg/kg fed mice): 90% |
| C[C@H](NC(=O)N(C)C1CCN(C)CC1)c1ccc(-c2cncc(F)n2)c(Cl)c1Cl [Compound H0847, (S)-3-(1-(2,3-dichloro-4-(6-fluoropyrazin-2-yl)phenyl)ethyl)-1-methyl-1-(1-methylpiperidin-4-yl)urea] | 2 | significantly increased 2-h chow food intake | significantly increased 24-h chow food intake | reduced binge eating episodes; also recorded: significant difference; also recorded: significantly reduced BE behaviour | High H High M | High H High M | significantly (P<0.01) reduced HPF intake at all time points | mild sedation | Mouse Food Intake, result in words (C57BL/6J mice; PO 10 mg/kg + ANA (ANAM) 30 mg/kg mice): PO 10 mg/kg + ANA 30 mg/kg mice: NSE; HPF intake (binge eating) in R+S rats, post-hoc ([1]; first test, 3 mg/kg by gavage 1 h before access to HPF, vs R+S vehicle): statistically significant at 15, 30 and 60 min after HPF access |
| C[C@H](NC(=O)N(C)C1CCN(C)CC1)c1ccc(-c2cnccn2)c(Cl)c1Cl [Compound H0816, (S)-3-(1-(2,3-dichloro-4-(pyrazin-2-yl)phenyl)ethyl)-1-methyl-1-(1-methylpiperidin-4-yl)urea] | 5.1 | did not modify 2-h chow intake | did not modify 24-h chow intake | reduced binge eating episodes; also recorded: significant difference; also recorded: significantly reduced BE behaviour |  |  | statistically significant (P<0.05) at 15 min time point | did not affect animals' gross behaviour | inhibition in vivo at 30 mg/kg (C57BL/6J mice; 30 mg/kg PO fasted mice, time not given): 12%; HPF intake (binge eating) in R+S rats, post-hoc ([1]; second test, 10 mg/kg by gavage 1 h before access to HPF): statistically significant (P<0.05) at 15 min time point; HPF intake (binge eating) in R+S rats, post-hoc ([1]; second test, 30 mg/kg by gavage 1 h before access to HPF): completely blocked (P<0.01) the BE episode at 15 min; animals' gross behaviour during the 2-h test ([1]; second test, 3, 10 and 30 mg/kg by gavage): did not affect animals' gross behaviour; 2-h chow intake [1, 7]: did not modify; 24-h chow intake [1, 7]: did not modify; 2-h HPF intake (binge eating) in R+S rats, overall (ANOVA) ([1]; second test, doses of 3, 10 and 30 mg/kg by gavage): significant difference; also recorded: confirmed, dose dependently, its selective inhibitory effect on BE |
